Measured values taken from the NIST ThermoML archive (doi:10.1016/j.jct.2010.07.016).

Tests used:
[1] = xn = mol fraction of the nth substance listed; conditions: 308.15 K, 101 kPa, Liquid; for excess molar volume: Direct dilatometry; for speed of sound: Linear variable-path acoustic interferometer
[2] = excess molar enthalpy (molar enthalpy of mixing); xn = mol fraction of the nth substance listed; conditions: 308.15 K, 101 kPa, Liquid, Drop calorimeter

C1CCOCC1 [tetrahydropyran] + Cc1ccc(C)cc1
Conditions | excess molar enthalpy [kcal/mol] | excess molar volume [m3/mol] | speed of sound [m/s]
[1], x1 = 0.0639 | – | -2.2e-08 | –
[1], x1 = 0.0784 | – | – | 1271
[1], x1 = 0.1503 | – | -4.3e-08 | –
[1], x1 = 0.1521 | – | – | 1267
[1], x1 = 0.2123 | – | – | 1263
[1], x1 = 0.2321 | – | -5.5e-08 | –
[1], x1 = 0.2835 | – | -5.9e-08 | –
[1], x1 = 0.2876 | – | – | 1258
[1], x1 = 0.3331 | – | -6.1e-08 | –
[1], x1 = 0.3342 | – | – | 1255
[1], x1 = 0.3832 | – | -6.1e-08 | –
[1], x1 = 0.4091 | – | – | 1251
[1], x1 = 0.4421 | – | -6e-08 | –
[1], x1 = 0.4953 | – | – | 1247
[1], x1 = 0.5127 | – | -5.7e-08 | –
[1], x1 = 0.5186 | – | – | 1245
[1], x1 = 0.5515 | – | -5.4e-08 | –
[1], x1 = 0.5684 | – | – | 1243
[1], x1 = 0.6027 | – | -4.9e-08 | –
[1], x1 = 0.6175 | – | – | 1241
[1], x1 = 0.6529 | – | -4.4e-08 | –
[1], x1 = 0.7077 | – | – | 1237
[1], x1 = 0.7211 | – | -3.6e-08 | –
[1], x1 = 0.7905 | – | -2.7e-08 | –
[1], x1 = 0.7909 | – | – | 1233
[1], x1 = 0.8666 | – | – | 1230
[1], x1 = 0.8673 | – | -1.7e-08 | –
[1], x1 = 0.9354 | – | – | 1227
[2], x1 = 0.0804 | -0.00684 | – | –
[2], x1 = 0.1402 | -0.0127 | – | –
[2], x1 = 0.2416 | -0.0226 | – | –
[2], x1 = 0.3002 | -0.0274 | – | –
[2], x1 = 0.3842 | -0.0325 | – | –
[2], x1 = 0.4706 | -0.0349 | – | –
[2], x1 = 0.5776 | -0.0335 | – | –
[2], x1 = 0.6454 | -0.0302 | – | –
[2], x1 = 0.6914 | -0.0271 | – | –
[2], x1 = 0.7432 | -0.0228 | – | –
[2], x1 = 0.7919 | -0.0183 | – | –
[2], x1 = 0.8476 | -0.0129 | – | –
[2], x1 = 0.9021 | -0.0077 | – | –
[2], x1 = 0.9415 | -0.00423 | – | –

Cc1cccc(C)c1 [1,3-dimethylbenzene] + C1CCOCC1
Conditions | excess molar enthalpy [kcal/mol] | excess molar volume [m3/mol] | speed of sound [m/s]
[1], x2 = 0.0626 | – | -6e-09 | –
[1], x2 = 0.0923 | – | – | 1277
[1], x2 = 0.1258 | – | -1.2e-08 | –
[1], x2 = 0.1515 | – | – | 1273
[1], x2 = 0.1731 | – | -1.7e-08 | –
[1], x2 = 0.2161 | – | – | 1269
[1], x2 = 0.2459 | – | -2.2e-08 | –
[1], x2 = 0.285 | – | – | 1264
[1], x2 = 0.3278 | – | – | 1261
[1], x2 = 0.3452 | – | -2.8e-08 | –
[1], x2 = 0.3611 | – | – | 1259
[1], x2 = 0.4081 | – | – | 1256
[1], x2 = 0.4411 | – | -3.2e-08 | –
[1], x2 = 0.4621 | – | – | 1253
[1], x2 = 0.4801 | – | -3.2e-08 | –
[1], x2 = 0.5179 | – | – | 1250
[1], x2 = 0.5413 | – | -3.2e-08 | –
[1], x2 = 0.5568 | – | – | 1248
[1], x2 = 0.6033 | – | -3.2e-08 | –
[1], x2 = 0.6179 | – | – | 1244
[1], x2 = 0.6541 | – | -3e-08 | –
[1], x2 = 0.7078 | – | – | 1239
[1], x2 = 0.7113 | – | -2.7e-08 | –
[1], x2 = 0.7852 | – | -2.2e-08 | –
[1], x2 = 0.7889 | – | – | 1235
[1], x2 = 0.8646 | – | – | 1231
[1], x2 = 0.8934 | – | -1.2e-08 | –
[1], x2 = 0.9229 | – | -9e-09 | –
[2], x2 = 0.0474 | -0.00437 | – | –
[2], x2 = 0.086 | -0.0071 | – | –
[2], x2 = 0.1141 | -0.00863 | – | –
[2], x2 = 0.1754 | -0.0107 | – | –
[2], x2 = 0.26 | -0.011 | – | –
[2], x2 = 0.3488 | -0.00872 | – | –
[2], x2 = 0.4432 | -0.00416 | – | –
[2], x2 = 0.4765 | -0.0022 | – | –
[2], x2 = 0.5624 | 0.00311 | – | –
[2], x2 = 0.6834 | 0.00978 | – | –
[2], x2 = 0.7603 | 0.0122 | – | –
[2], x2 = 0.8001 | 0.0126 | – | –
[2], x2 = 0.8744 | 0.0112 | – | –
[2], x2 = 0.9453 | 0.00643 | – | –

C1CCOCC1 [tetrahydropyran] + c1ccccc1
Conditions | excess molar enthalpy [kcal/mol] | excess molar volume [m3/mol] | speed of sound [m/s]
[1], x1 = 0.0555 | – | – | 1256
[1], x1 = 0.0684 | – | -4.9e-08 | –
[1], x1 = 0.1029 | – | -6.9e-08 | –
[1], x1 = 0.1165 | – | – | 1253
[1], x1 = 0.1472 | – | – | 1251
[1], x1 = 0.1673 | – | -1.01e-07 | –
[1], x1 = 0.1835 | – | -1.08e-07 | –
[1], x1 = 0.2223 | – | – | 1248
[1], x1 = 0.243 | – | -1.29e-07 | –
[1], x1 = 0.2728 | – | – | 1246
[1], x1 = 0.3143 | – | -1.45e-07 | –
[1], x1 = 0.3751 | – | – | 1241
[1], x1 = 0.4085 | – | -1.56e-07 | –
[1], x1 = 0.4395 | – | – | 1239
[1], x1 = 0.4821 | – | – | 1237
[1], x1 = 0.5291 | – | -1.52e-07 | –
[1], x1 = 0.5313 | – | – | 1238
[1], x1 = 0.599 | – | -1.42e-07 | –
[1], x1 = 0.6223 | – | – | 1233
[1], x1 = 0.6543 | – | -1.3e-07 | –
[1], x1 = 0.681 | – | – | 1231
[1], x1 = 0.7321 | – | – | 1230
[1], x1 = 0.7452 | – | -1.05e-07 | –
[1], x1 = 0.7823 | – | -9.3e-08 | –
[1], x1 = 0.8253 | – | – | 1228
[1], x1 = 0.8754 | – | -5.7e-08 | –
[1], x1 = 0.9123 | – | – | 1226
[1], x1 = 0.9539 | – | -2.3e-08 | –
[2], x1 = 0.0484 | -0.00779 | – | –
[2], x1 = 0.0757 | -0.0123 | – | –
[2], x1 = 0.0978 | -0.016 | – | –
[2], x1 = 0.1432 | -0.0235 | – | –
[2], x1 = 0.2425 | -0.0384 | – | –
[2], x1 = 0.311 | -0.0467 | – | –
[2], x1 = 0.385 | -0.053 | – | –
[2], x1 = 0.4982 | -0.0565 | – | –
[2], x1 = 0.6013 | -0.0531 | – | –
[2], x1 = 0.6875 | -0.0456 | – | –
[2], x1 = 0.7073 | -0.0434 | – | –
[2], x1 = 0.7832 | -0.0334 | – | –
[2], x1 = 0.8501 | -0.0233 | – | –
[2], x1 = 0.923 | -0.0117 | – | –
